Legend:
[1] = test system: HBV viral production in AD38 cells; experiment: Viral load production in AD38 cells by quantitative PCR of the HBV core sequence in supernatant; assay type: cell-based; details: 10 μM compound, 6 days at 37° C., viral load in supernatant compared against DMSO control wells; for activity at 10 µM: Hepatitis B virus, 144 h, read-out: AD38 Viral Load (CpAM/DMSO %) at 10 μM
Method: (§1) Example 56: Assay Measuring Activity of Compounds on Viral Production in and on Viability of AD38 Cells
(§2) AD38 cells were then re-suspended with 10 mL of Treatment Medium and counted. Wells of a collagen coated 96-well NUNC microtiter plate were seeded at 50,000/well in 180 μL of Treatment Medium, and 20 μL of in treatment media with either 10% DMSO (Control) or a 10× solution of compound in 10% DMSO was added. Plates were incubated for 6 days at 37° C.
Viral load production was assayed by quantitative PCR of the core sequence. Briefly, 5 μL of clarified supematant was added to a PCR reaction mixture that contained forward primers HBV-f 5′-CTGTGCCTTGGGTGGCTTT-3′, Reverse primers HBV-r 5′-[…]-3′ and Fluorescent TaqMan™ Probes HBV-probe 5′-FAM/AGCTCCAAA/ZEN/[…]/3IABkFQ-3′ in Quanta Biosciences PerfeCTa® qPCR Toughmix®, and was subsequently on an Applied Biosystems VIIA7 in a final volume of 20 μL. The PCR mixture was incubated at 45° C. for 5 minutes, then 95° C. for 10 min, followed by 40 cycles of 10 seconds at 95° C. and 20 seconds at 60° C. Viral load was quantitated against known standards by using ViiA™ 7 Software. Viral load in the supematant from wells with treated cells were compared against viral load in supernatant from DMSO control wells (≥3 per plate).

[2] = test system: AD38 cells; experiment: Viability of AD38 cells (Promega CellTiter-Glo) at the end of compound treatment; assay type: cell-based; details: 10 μM compound, 6 days, luminescence normalized against DMSO control wells (controls being 100%)
Method: as §1, §2
At the end of compound treatment period cell viability was assessed using a Promega CellTiter-Glo protocol. All supernatant was removed the previously treated 96-well microtiter plate, and 50 μL Tetracycline-free treatment medium (DMEM/F12 (1:1), lx Pen/step (cat#: 30-002-CL, Mediatech, Inc), with 2% FBS, Tet-system approved (cat#: 631106, Clontech), and 1% DMSO was added back to each well. Another 50 μL of CellTiter-Glo reagent solution (Promega, G7573) was then added at room temperature and the contents mixed for 2 minutes on an orbital shaker to induce cell lysis. This was followed by incubation at room temperature for 10 minutes to stabilize the luminescent signal. The luminescence was recorded for 0.2 seconds per well on a Tecan multimode platereader (Infinite M1000 pro). The luminescent signal from each well was normalized against that of untreated (DMSO) control wells. All results were reported percent viability (with controls being 100%).

SMILES: Cc1c(C(=O)NCc2cncnc2)ccc2c1NC(=O)c1ccccc1S2 [Compound 1478]
- activity at 10 µM [1]: 2%
- AD38 Viability Normalized Result (CPAM/DMSO %) at 10 μM [2]: 94%

SMILES: COC(=O)c1ccc(CCNC(=O)c2ccc3c(c2)NC(=O)c2ccccc2S3)cc1 [Compound 1117]
- activity at 10 µM [1]: 67%
- AD38 Viability Normalized Result (CPAM/DMSO %) at 10 μM [2]: 108%

SMILES: O=C(NCCc1cncnc1)c1ccc2c(c1)NC(=O)c1ccccc1S2 [Compound 1290]
- activity at 10 µM [1]: 33%
- AD38 Viability Normalized Result (CPAM/DMSO %) at 10 μM [2]: 94%

SMILES: CCN1c2ccc(C(=O)NCCc3cncs3)cc2NC(=O)c2ccccc21 [Compound 1566]
- activity at 10 µM [1]: 31%
- AD38 Viability Normalized Result (CPAM/DMSO %) at 10 μM [2]: 91%

SMILES: O=C(NCc1ccccc1OC(F)(F)F)c1ccc2c(c1)NC(=O)c1ccccc1S2 [Compound 1232]
- activity at 10 µM [1]: 42%
- AD38 Viability Normalized Result (CPAM/DMSO %) at 10 μM [2]: 94%

SMILES: O=C(NCCC1CCCCC1)c1ccc2c(c1)Sc1ccccc1C(=O)N2 [Compound 1199]
- activity at 10 µM [1]: 19%
- AD38 Viability Normalized Result (CPAM/DMSO %) at 10 μM [2]: 109%

SMILES: O=C(NCc1cncs1)c1ccc2c(c1)NC(=O)c1cc(F)ccc1S2 [Compound 1309]
- activity at 10 µM [1]: 1%
- AD38 Viability Normalized Result (CPAM/DMSO %) at 10 μM [2]: 107%

SMILES: O=C(NCCc1cncs1)c1ccc2c(c1)NC(=O)c1cc(F)ccc1S2 [Compound 1418]
- activity at 10 µM [1]: 12%
- AD38 Viability Normalized Result (CPAM/DMSO %) at 10 μM [2]: 73%

SMILES: O=C(NCCc1ccc(-c2ccccc2)cc1)c1ccc2c(c1)NC(=O)c1ccc(F)cc1S2 [Compound 1371]
- activity at 10 µM [1]: 6%
- AD38 Viability Normalized Result (CPAM/DMSO %) at 10 μM [2]: 94%

SMILES: CCc1ncc(CNC(=O)c2ccc3c(c2)NC(=O)c2ccccc2S3)s1 [Compound 1604]
- activity at 10 µM [1]: 0%
- AD38 Viability Normalized Result (CPAM/DMSO %) at 10 μM [2]: 105%

SMILES: COc1ccc(CCNC(=O)c2ccc3c(c2)NC(=O)c2ccccc2S3)cc1 [Compound 1114]
- activity at 10 µM [1]: 1%
- AD38 Viability Normalized Result (CPAM/DMSO %) at 10 μM [2]: 104%

SMILES: O=C(Nc1ccncc1)c1ccc2c(c1)NC(=O)c1c(F)cccc1S2 [Compound 1463]
- activity at 10 µM [1]: 31%
- AD38 Viability Normalized Result (CPAM/DMSO %) at 10 μM [2]: 97%

SMILES: CCN1c2ccc(C(=O)NCCc3cncnc3)cc2NC(=O)c2ccccc21 [Compound 1565]
- activity at 10 µM [1]: 4%
- AD38 Viability Normalized Result (CPAM/DMSO %) at 10 μM [2]: 103%

SMILES: O=C(NCCc1cnco1)c1ccc2c(c1)NC(=O)c1cc(F)ccc1S2 [Compound 1417]
- activity at 10 µM [1]: 11%
- AD38 Viability Normalized Result (CPAM/DMSO %) at 10 μM [2]: 75%

SMILES: O=C(NCCC1CCCCC1)c1ccc2c(c1)NC(=O)c1ccccc1S2 [Compound 1105]
- activity at 10 µM [1]: 1%
- AD38 Viability Normalized Result (CPAM/DMSO %) at 10 μM [2]: 101%

SMILES: O=C1Nc2c(cc(F)c(C(=O)NCc3cccnc3)c2F)Sc2ccccc21 [Compound 1546]
- activity at 10 µM [1]: 65%
- AD38 Viability Normalized Result (CPAM/DMSO %) at 10 μM [2]: 89%

SMILES: O=C(NCc1cncnc1)c1ccc2c(c1)NC(=O)c1ccc(F)cc1S2 [Compound 1347]
- activity at 10 µM [1]: 3%
- AD38 Viability Normalized Result (CPAM/DMSO %) at 10 μM [2]: 94%

SMILES: O=C(NCc1cnco1)c1ccc2c(c1)NC(=O)c1ccccc1[S+]2[O-] (stereo not drawn) [Compound 1381]
- activity at 10 µM [1]: 40%
- AD38 Viability Normalized Result (CPAM/DMSO %) at 10 μM [2]: 93%

SMILES: O=C(NCCc1cncnc1)c1ccc2c(c1)NC(=O)c1cccc(F)c1S2 [Compound 1409]
- activity at 10 µM [1]: 4%
- AD38 Viability Normalized Result (CPAM/DMSO %) at 10 μM [2]: 83%

SMILES: O=C(NCCc1ccccn1)c1ccc2c(c1)NC(=O)c1cc(F)ccc1S2 [Compound 1310]
- activity at 10 µM [1]: 1%
- AD38 Viability Normalized Result (CPAM/DMSO %) at 10 μM [2]: 89%

SMILES: O=C(NCCC1CCC(F)(F)CC1)c1ccc2c(c1)NC(=O)c1ccccc1S2 [Compound 1216]
- activity at 10 µM [1]: 1%
- AD38 Viability Normalized Result (CPAM/DMSO %) at 10 μM [2]: 125%

SMILES: O=C(NCCc1cnco1)c1ccc2c(c1)NC(=O)c1ccccc1S2 [Compound 1246]
- activity at 10 µM [1]: 6%
- AD38 Viability Normalized Result (CPAM/DMSO %) at 10 μM [2]: 96%

SMILES: O=C(Nc1cccc(-c2cncnc2)c1)c1ccc2c(c1)NC(=O)c1cc(F)ccc1S2 [Compound 1440]
- activity at 10 µM [1]: 71%
- AD38 Viability Normalized Result (CPAM/DMSO %) at 10 μM [2]: 91%

SMILES: CCCCCCCCNC(=O)c1ccc2c(c1)NC(=O)c1ccccc1S2 [Compound 1152]
- activity at 10 µM [1]: 1%
- AD38 Viability Normalized Result (CPAM/DMSO %) at 10 μM [2]: 45%

SMILES: O=C(NCc1ccncc1)c1ccc2c(c1)NC(=O)c1ccccc1S2 [Compound 1572]
- activity at 10 µM [1]: 5%
- AD38 Viability Normalized Result (CPAM/DMSO %) at 10 μM [2]: 116%

SMILES: O=C(NCCc1ccc(-n2ccnc2)cc1)c1ccc2c(c1)NC(=O)c1ccccc1S2 [Compound 1248]
- activity at 10 µM [1]: 3%
- AD38 Viability Normalized Result (CPAM/DMSO %) at 10 μM [2]: 106%

SMILES: O=C(NCCc1nnc(-c2ccco2)[nH]1)c1ccc2c(c1)NC(=O)c1ccccc1S2 [Compound 1570]
- activity at 10 µM [1]: 2%
- AD38 Viability Normalized Result (CPAM/DMSO %) at 10 μM [2]: 115%

SMILES: O=C(Nc1ccc(F)cc1)c1ccc2c(c1)NC(=O)c1cc(F)ccc1S2 [Compound 1316]
- activity at 10 µM [1]: 32%
- AD38 Viability Normalized Result (CPAM/DMSO %) at 10 μM [2]: 89%

SMILES: O=C(NCc1cccc(OC(F)(F)F)c1)c1ccc2c(c1)NC(=O)c1ccccc1S2 [Compound 1203]
- activity at 10 µM [1]: 3%
- AD38 Viability Normalized Result (CPAM/DMSO %) at 10 μM [2]: 89%

SMILES: O=C(NCc1cncs1)c1ccc2c(c1)NC(=O)c1ccccc1S2 [Compound 1245]
- activity at 10 µM [1]: 1%
- AD38 Viability Normalized Result (CPAM/DMSO %) at 10 μM [2]: 101%

SMILES: O=C(O)c1cccc(-c2cccc(NC(=O)c3ccc4c(c3)NC(=O)c3cc(F)ccc3S4)c2)c1 [Compound 1421, 3′-(2-fluoro-11-oxo-10, 11-dihydrodibenzo [b,f] [1,4]thiazepine-8-carboxamido)-[1, 1′-biphenyl]-3-carboxylic acid]
- activity at 10 µM [1]: 78%
- AD38 Viability Normalized Result (CPAM/DMSO %) at 10 μM [2]: 95%

SMILES: COc1ccccc1CCNC(=O)c1ccc2c(c1)NC(=O)c1ccccc1S2 [Compound 1127]
- activity at 10 µM [1]: 22%
- AD38 Viability Normalized Result (CPAM/DMSO %) at 10 μM [2]: 94%

SMILES: O=C(NCCc1cnco1)c1ccc2c(c1)NC(=O)c1cccc(F)c1S2 [Compound 1487]
- activity at 10 µM [1]: 15%
- AD38 Viability Normalized Result (CPAM/DMSO %) at 10 μM [2]: 96%

SMILES: O=C(NCc1cnco1)c1ccc2c(c1)NC(=O)c1ccc(F)cc1S2 [Compound 1349]
- activity at 10 µM [1]: 12%
- AD38 Viability Normalized Result (CPAM/DMSO %) at 10 μM [2]: 102%

SMILES: O=C1Nc2c(cc(F)c(C(=O)NCCc3cncs3)c2F)Sc2ccccc21 [Compound 1563]
- activity at 10 µM [1]: 41%
- AD38 Viability Normalized Result (CPAM/DMSO %) at 10 μM [2]: 93%

SMILES: O=C(Nc1cccc(-c2ccncn2)c1)c1ccc2c(c1)NC(=O)c1cc(F)ccc1S2 [Compound 1451]
- activity at 10 µM [1]: 30%
- AD38 Viability Normalized Result (CPAM/DMSO %) at 10 μM [2]: 92%

SMILES: O=C1Nc2cc(S(=O)(=O)NCCc3ccccc3)ccc2Sc2ccccc21 [Compound 1289, 11-oxo-N-phenethyl-10, 11-dihydrodibenzo [b,f] [1,4] thiazepine-8-sulfonamide]
- activity at 10 µM [1]: 40%
- AD38 Viability Normalized Result (CPAM/DMSO %) at 10 μM [2]: 96%

SMILES: CCc1ncsc1CNC(=O)c1ccc2c(c1)NC(=O)c1ccccc1S2 [Compound 1631]
- activity at 10 µM [1]: 9%
- AD38 Viability Normalized Result (CPAM/DMSO %) at 10 μM [2]: 112%

SMILES: CN1c2ccc(C(=O)NCCc3ccccn3)cc2NC(=O)c2ccccc21 [Compound 1498]
- activity at 10 µM [1]: 1%
- AD38 Viability Normalized Result (CPAM/DMSO %) at 10 μM [2]: 82%

SMILES: CCN1c2ccc(C(=O)NCc3cncs3)cc2NC(=O)c2ccccc21 [Compound 1534]
- activity at 10 µM [1]: 5%
- AD38 Viability Normalized Result (CPAM/DMSO %) at 10 μM [2]: 109%

SMILES: COC(=O)C(Cc1cncnc1)NC(=O)c1ccc2c(c1)NC(=O)c1cc(F)ccc1S2 (stereo not drawn) [Compound 1342, Methyl 2-(2-fluoro-11-oxo-10, 11-dihydrodibenzo [b,f] [1,4]thiazepine-8-carboxamido)-3-(pyrimidin-5-yl) propanoate]
- AD38 Viral Load (CpAM/DMSO %) at 10 μM [1]: 113%
- AD38 Viability Normalized Result (CPAM/DMSO %) at 10 μM [2]: 95%

SMILES: O=C(NCc1cncs1)c1ccc2c(c1)NC(=O)c1cccc(F)c1S2 [Compound 1407]
- activity at 10 µM [1]: 3%
- AD38 Viability Normalized Result (CPAM/DMSO %) at 10 μM [2]: 103%

SMILES: CN(C)S(=O)(=O)c1ccc(CCNC(=O)c2ccc3c(c2)NC(=O)c2ccccc2S3)cc1 [Compound 1102]
- activity at 10 µM [1]: 1%
- AD38 Viability Normalized Result (CPAM/DMSO %) at 10 μM [2]: 100%

SMILES: O=C(NCCC1CCOCC1)c1ccc2c(c1)NC(=O)c1ccccc1S2 [Compound 1191]
- activity at 10 µM [1]: 14%
- AD38 Viability Normalized Result (CPAM/DMSO %) at 10 μM [2]: 121%

SMILES: COCC(Cc1cncnc1)NC(=O)c1ccc2c(c1)NC(=O)c1cc(F)ccc1S2 (stereo not drawn) [Compound 1397]
- activity at 10 µM [1]: 73%
- AD38 Viability Normalized Result (CPAM/DMSO %) at 10 μM [2]: 95%

Source: US10183936B2, “Hepatitis B core protein allosteric modulators” (priority 2014, dated 2019)
